Data as given in patent US6444670B2 (Wyeth, priority 1998, dated 2002).

Key:
[1] = biological target: T1, Human recombinant PTP1B (hPTP1B) (Homo sapiens, UniProt P18031); type: biochemical
T1 construct: made in house
T1 sequence (P18031 1-435): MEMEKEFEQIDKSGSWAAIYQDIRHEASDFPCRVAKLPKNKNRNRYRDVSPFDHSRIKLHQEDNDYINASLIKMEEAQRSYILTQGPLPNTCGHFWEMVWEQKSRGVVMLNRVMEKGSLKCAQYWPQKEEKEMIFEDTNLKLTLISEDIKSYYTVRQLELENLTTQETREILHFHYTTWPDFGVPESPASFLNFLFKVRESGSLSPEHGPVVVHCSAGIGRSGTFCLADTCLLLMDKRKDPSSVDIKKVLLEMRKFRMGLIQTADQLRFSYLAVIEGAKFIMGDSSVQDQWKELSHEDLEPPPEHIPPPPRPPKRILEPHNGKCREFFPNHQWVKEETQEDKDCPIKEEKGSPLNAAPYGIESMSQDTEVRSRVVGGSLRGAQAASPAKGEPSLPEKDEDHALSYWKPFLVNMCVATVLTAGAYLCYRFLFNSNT

[2] = test system: rat hepatic microsomal PTPases; details: 50 μM compound
[3] = test system: diabetic (ob/ob) mice; test: Blood glucose lowering in diabetic (ob/ob) mice; type: in vivo, mouse; details: plasma glucose, dose 25 mg/Kg, (a) = no significant activity (p < 0.05) at this dose
Text: The procedures used and results obtained are briefly described below.
The non-insulin dependent diabetic (NIDDM) syndrome can be typically characterizes by obesity, hyperglycemia, abnormal insulin secretion, hyperinsulinemia and insulin resistance.
In each test procedure, mice [Male or female ob/ob (C57 B1/6J) and their lean litermates (ob/+ or +/+, Jackson Laboratories) ages 2 to 5 months (10 to 65 g)] of a similar age were randomized according to body weight into 4 groups of 10 mice. The mice were housed 5 per cage and are maintained on normal rodent chow with water ad libitum. Mice received test compound daily by gavage (suspended in 0.5 ml of 0.5% methyl cellulose); dissolved in the drinking water; or admixed in the diet. The dose of compounds given ranges from 2.5 to 200 mg/kg body weight/day. The dose is calculated based on the fed weekly body weight and is expressed as active moiety. […] Control mice received vehicle only.
On the morning of Day 4, 7 or 14 two drops of blood (approximetly 50 ul) were collected into sodium fluoride containing tubes either from the tail vein or after decapitation. For those studies in which the compound was administered daily by gavage the blood samples were collected 0 and 4 hours after compound administration. The plasma was isolated by centrifugation and the concentration of glucose is measured enzymatically on an Abbott V. P. Analyzer.
For each mouse, the percentage change in plasma glucose on Day 4, 7 or 14 is calculated relative to the mean plasma glucose of the vehicle treated mice. Analysis of variance followed by Dunett's Comparison Test (one-tailed) are used to estimate the significant difference between the plasma glucose values from the control group and the individual compound treated groups (CMS SAS Release 5.18).

melting point	IC50 [1] [nM]	% Change from Control [2] [%]	SMILES	% Change Glucose from Vehicle [3]
172 to 174 °C	539	−49.80	Cc1sc2c(Br)c3ccccc3c(-c3cc(Br)c(O)c(Br)c3)c2c1C [Example 9, 2,6-Dibromo-4-(9-bromo-2,3-dimethyl-naphtho[2,3-b]thiophen-4-yl)-phenol]	
237 to 240 °C	697	−30.40	Cc1c(CN2CCOCC2)sc2c(Br)c3ccccc3c(-c3cc(Br)c(O)c(Br)c3)c12 [Example 19, 2,6-Dibromo-4-(9-bromo-3-methyl-2-morpholin-4-ylmethyl-naphtho[2,3-b]thiophen-4-yl)-phenol]	
183 to 185 °C		2.13	Cc1sc2c(Br)c3ccccc3c(-c3ccc(O)c([N+](=O)[O-])c3)c2c1C [Example 20, 4-(9-Bromo-2,3-dimethyl-naphtho[2,3-b]thiophen-4-yl)-2-nitro-phenol]	
129 to 130 °C	381	−63.12	Cc1sc2c(Br)c3ccccc3c(-c3cc(Br)c(O)c([N+](=O)[O-])c3)c2c1C [Example 21, 2-Bromo-4-(9-bromo-2,3-dimethyl-naphtho[2,3-b]thiophen-4-yl)-6-nitro-phenol]	
173 to 175 °C		−28.57	Cc1sc2c(Br)c3ccccc3c(-c3ccc(O)c(N)c3)c2c1C [Example 22, 2-Amino-4-(9-bromo-2,3-dimethyl-naphtho[2,3-b]thiophen-4-yl)-phenol]	
224 to 225 °C	869	−60.32	Cc1sc2c(Br)c3ccccc3c(-c3cc(Br)c(O[C@H](C)C(=O)O)c(Br)c3)c2c1C [Example 30, (R)-2-[2,6-Dibromo-4-(9-bromo-2,3-dimethylnaptho[2,3-b]thien-4-yl)-phenoxy]-propanoic acid]	
176 to 177 °C	49	−63.42	Cc1sc2c(Br)c3ccccc3c(-c3cc(Br)c(O[C@@H](CCc4ccccc4)C(=O)O)c(Br)c3)c2c1C [Example 31, (S)-2-[2,6-Dibromo-4-(9-bromo-2,3-dimethyl-naphtho[2,3-b]thiophen-4-yl)-phenoxy]-4-phenyl-butyric acid]	
167 to 168.5 °C	83	−44.69	Cc1sc2c(Br)c3ccccc3c(-c3cc(Br)c(O[C@H](Cc4ccccc4)C(=O)O)c(C4CCCC4)c3)c2c1C [Example 48]	−20.1 ^ %
228 to 231 °C	204	−81.83	Cc1sc2c(Br)c3ccccc3c(-c3cc(C(C)C)c(OCC(=O)O)c(C(C)C)c3)c2c1C [Example 53, [4-(9-Bromo-2,3-dimethyl-naphtho[2,3-b]thiophen-4-yl)-2,6-diisopropyl-phenoxy]-acetic acid]	
> 190 °C (dec.)	1510		COc1c(Br)cc(-c2c3ccccc3c(Br)c3sc(C)c(C)c23)cc1NCC(=O)O [Example 60, [3-Bromo-5-(9-bromo-2,3-dimethyl-naphtho[2,3-b]thiophen-4-yl)-2-methoxy-phenylamino]-acetic Acid]	
